A word on the IC50: it is the concentration that gives 50% inhibition. The term EC50 denotes the concentration at which the effect is half-maximal.

The text below walks through data of US20130029970A1 (priority 2009, published 2013).

Read-outs that look alike come from different tables or passages of the source.

One assay addresses T1, human CB1 receptors (Homo sapiens, UniProt P21554).
T1 construct: (cDNA clone) CNR01L000
As to the kind of experiment: cAMP assay in HEK-293 cells, hCB1 agonist. In kind it is cell-based. The settings on record: inhibition of forskolin-stimulated cAMP, HEK-293 cells. The text has this: (§1) Stable, HEK-293-derived cell lines that recombinantly express hCBI or hCB2 were established. In brief, the clone hCB1 (CNR IL) or hCB2 (CNR2) was transfected into human embryonic kidney cells (HEK-293) using Lipofectamine 2000 (Gibco, Cat#11668-019) according to the manufacturer's protocol. Transfected clones were isolated by single colony purification and clones were screened for receptor expression using a whole cell, ^3H—CP 55,940 radioligand binding assay. HEK-293 stable cells were maintained in Dulbecco's modified Eagles medium (DMEM) containing 10% fetal bovine serum, 2 mM L-glutamine and 0.5 mg/mL G-418.
(§2) Functional assays which monitor G-protein coupled receptor or downstream cellular responses can be used to characterize potential CB1 receptor and/or CB2 receptor agonist or antagonist activities. Direct activation (or inhibition of activation) can be monitored using a GTPγS assay (membrane-based assay) or cAMP assay (whole cell-based assay).
(§3) cAMP assays were performed in HEK-293 cells stably expressing human CB1 or CB2 receptors. For cannabinoid receptor functional assays measuring agonist effects on cellular cAMP levels, monolayers of cultured cells were harvested with enzyme-free PBS-based cell dissociation buffer (Gibco, Cat#13151-04). Cells suspensions were centrifuged and the cells were washed once with PBS, were centrifuged again, and the cells were re-suspended in HBSS (Hank's Balanced Salt Solution, Cellgro, Cat #21-022-CV) solution containing 10 mM HEPES and 0.1% fatty acid free BSA (Sigma, Cat #A0281). Cell suspensions were prepared at 1,500,000 cells per ml. Stock solutions of test substances (10 mM) in DMSO were diluted to 1 mM using 30% DMSO as diluent. Test substances of solutions (1 mM) were further diluted down to 3× of final assay concentrations in the above HBSS buffer containing 0.1% BSA in the presence of 90 uM forskolin (Sigma Cat#F6886). To perform the assay, 20 uL of cell suspension (1,500,000 cells/mL) were added to each well in 96 well plate and treated with 10 uL test substance solution diluted as described above. Cells and compounds were incubated at 37° C. for 30 minutes. Cells were lysed and cAMP concentration was measured using DiscoveRx −XS+ cAMP assay kit (DiscoveRx Corporation Ltd., Fremont, Calif., USA, Cat #90-0075-03), following the manufacturer's protocol. GraphPad Prism software was used to calculate EC50 values using sigmoidal dose response curve fitting. The maximal amount of cAMP produced by forskolin was defined as 100%. CB1 or CB2 agonists reduced forskolin-stimulated cAMP signaling. The EC50 value of an agonist compound was defined as the concentration at which 50% of the forskolin-stimulated cAMP synthesis was inhibited.
In general terms: Changes in cAMP serve as a functional read-out for many G protein-coupled receptors.

Assay [1] concerns the target T2, recombinant human cannabinoid receptor CB2 (Homo sapiens, UniProt P34972).
T2 construct: (cDNA clone) CNR0200000
The assay can be described thus: Cannabinoid receptor radioligand binding assay, [3H]-CP 55,940 displacement, hCB2. As to the method: Membranes were isolated from transfected cells as follows. Monolayers of cultured cells were washed twice with phosphate-buffered saline (PBS). […] Homogenates were centrifuged 10 minutes at 1000×g at 4° C. The supernatant was collected and was centrifuged for 1 hour at 40,000×g. The supernatant was then decanted and the resulting pellet was re-suspended in 20 mM HEPES, pH 7.4, 5 mM MgCl2, 1 mM EDTA, 10% sucrose with complete cocktail protease inhibitors. Protein concentration of membrane suspensions were measured by Bradford Protein Assay using bovine serum albumin as the standard (BioRad catalog #500-0006). Protein concentrations of membrane suspensions were adjusted with the final buffer in the range of 5 to 10 mg/mL and were stored at −80° C. until further use.
A rapid filtration technique using Millipore FB filter plates (Catalog #MADVNOB) and filtration apparatus (Millipore system Catalog MAVM0960R) with vacuum aspiration was used to harvest and rinse labeled membranes (8 times with 0.2 mL of chilled binding buffer). […] Binding data were analyzed using GraphPad Prism (GraphPad Software, Inc. San Diego, Calif.).

The next assay addresses T3, human CB2 receptors (Homo sapiens, UniProt P34972).
T3 construct: (cDNA clone) CNR0200000
The assay can be described thus: cAMP assay in HEK-293 cells, hCB2 agonist. In kind it is cell-based. As to the method:
as §2
as §3, with “For cannabinoid receptor functional assays measuring agonist effects on cellular cAMP levels, monolayers of cultured cells were harvested with enzyme-free PBS-based cell dissociation buffer (Gibco, Cat#13151-04).” left out, “100%.” for “100%. CB1 or CB2 agonists reduced forskolin-stimulated cAMP signaling. The EC50 value of an agonist compound was defined as the concentration at which 50% of the forskolin-stimulated cAMP synthesis was inhibited.”

For assay [2], the target named is T4, recombinant human cannabinoid receptor CB1 (Homo sapiens, UniProt P21554).
T4 construct: (cDNA clone) CNR01L000
The assay can be described thus: Cannabinoid receptor radioligand binding assay, [3H]-CP 55,940 displacement, hCB1.
From the text: as §1
Membranes were isolated from transfected cells as follows. Monolayers of cultured cells were washed twice with phosphate-buffered saline (PBS). Cells were scraped into 20 mM HEPES, pH 7.4, 10 mM EDTA containing complete cocktail protease inhibitors (Roche, Catalog #11 697 498 001) and were homogenized by an electric-powered mechanical probe homogenizer (Omni GLH; probe G7-195S) for 40 seconds at 7000 rpm. Homogenates were centrifuged 10 minutes at 1000×g at 4° C. The supernatant was collected and was centrifuged for 1 hour at 40,000×g. The supernatant was then decanted and the resulting pellet was re-suspended in 20 mM HEPES, pH 7.4, 5 mM MgCl2, 1 mM EDTA, 10% sucrose with complete cocktail protease inhibitors. Protein concentration of membrane suspensions were measured by Bradford Protein Assay using bovine serum albumin as the standard (BioRad catalog #500-0006). Protein concentrations of membrane suspensions were adjusted with the final buffer in the range of 5 to 10 mg/mL and were stored at −80° C. until further use.
Radioligand binding assays were performed by incubating membranes (2-10 μg protein) prepared from HEK-293 cells expressing recombinant human cannabinoid receptors, CB1 or CB2, at room temperature with 0.5 nM cannabinoid receptor agonist, [^3H]-CP 55,940 (Perkin Elmer, catalog #NET1051) in 0.2 mL of binding buffer (50 mM Tris-HCl, pH 7.5, 5 mM MgCl2, 2.5 mM EDTA) and 0.1% fatty acid free bovine serum albumin (Sigma Cat. #A0821) for 90 minutes. A rapid filtration technique using Millipore FB filter plates (Catalog #MADVNOB) and filtration apparatus (Millipore system Catalog MAVM0960R) with vacuum aspiration was used to harvest and rinse labeled membranes (8 times with 0.2 mL of chilled binding buffer). The radioactivity bound to the filters was counted with 0.05 mL of liquid scintillant (UltraGold MV, PerkinElmer catalog #6013159) in a scintillation counter (Perkin Elmer Microbeta instrument). Nonspecific binding was determined in the presence of unlabeled 1 μM CP 55,940 (Sigma Aldrich, catalog #C1112). Binding data were analyzed using GraphPad Prism (GraphPad Software, Inc. San Diego, Calif.).

The mark [3] stands for this setting: displacement of 0.5 nM [3H]-CP 55,940, read-out: hCB2 IC50 (CP displ).
Setting [4] is: displacement of 0.5 nM [3H]-CP 55,940, read-out: hCB1 IC50 (CP displ).

T4 sequence (P21554 whole entry): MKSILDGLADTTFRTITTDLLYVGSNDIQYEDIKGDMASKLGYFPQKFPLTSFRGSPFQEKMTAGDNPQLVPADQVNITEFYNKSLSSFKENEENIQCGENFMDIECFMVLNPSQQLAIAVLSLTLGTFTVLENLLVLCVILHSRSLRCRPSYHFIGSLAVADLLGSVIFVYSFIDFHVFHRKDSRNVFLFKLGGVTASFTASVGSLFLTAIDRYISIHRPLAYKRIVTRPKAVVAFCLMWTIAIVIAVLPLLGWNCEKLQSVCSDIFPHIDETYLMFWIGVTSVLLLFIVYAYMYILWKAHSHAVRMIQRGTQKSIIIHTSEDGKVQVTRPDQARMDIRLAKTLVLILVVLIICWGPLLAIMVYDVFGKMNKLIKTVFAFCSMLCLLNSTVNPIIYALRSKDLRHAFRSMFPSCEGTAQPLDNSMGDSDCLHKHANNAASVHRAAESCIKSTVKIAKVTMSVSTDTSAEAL
T1 sequence (P21554 whole entry): as above
T3 sequence (P34972 whole entry): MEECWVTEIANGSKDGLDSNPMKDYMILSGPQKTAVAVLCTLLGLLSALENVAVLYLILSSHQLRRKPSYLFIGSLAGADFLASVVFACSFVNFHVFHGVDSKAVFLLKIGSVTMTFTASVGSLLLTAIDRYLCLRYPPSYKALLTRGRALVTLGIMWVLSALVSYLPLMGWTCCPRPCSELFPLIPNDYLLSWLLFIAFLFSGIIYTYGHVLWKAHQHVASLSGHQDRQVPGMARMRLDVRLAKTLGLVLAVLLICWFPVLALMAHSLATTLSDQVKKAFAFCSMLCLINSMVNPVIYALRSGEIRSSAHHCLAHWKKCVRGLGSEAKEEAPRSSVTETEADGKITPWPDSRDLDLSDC
T2 sequence (P34972 whole entry): as above

On to `Cc1cc2cc(C(=O)c3cccc(Cl)c3Cl)sc2[nH]1` [Compound 2, (2,3-dichlorophenyl)(5-methyl-6H-thieno[2,3-b]pyrrol-2-yl)methanone], for which the “hCB1 EC50 (cAMP ag, nM)” value at human CB1 receptors is recorded as “NS (NS means “Not Significant,” which means less than 30% agonist activity when compared to the positive control.)”. For the same compound, the half-maximal inhibitory concentration (IC50) was 1 to 10 µM in assay [1] (setting [3]) and more than 10 µM in assay [2] (setting [4]). The compound also returned an EC50 on human CB2 receptors of 1 to 10 µM.
Turning to `Cc1cc2cc(C(=O)c3cccnc3)sc2n1CCN1CCOCC1` [Compound 14, (5-Methyl-6-(2-morpholinoethyl)-6H-thieno[2,3-b]pyrrol-2-yl)(pyridin-3-yl)methanone], the “hCB1 EC50 (cAMP ag, nM)” value at human CB1 receptors is “NS (NS means “Not Significant,” which means less than 30% agonist activity when compared to the positive control.)”. For the same compound, the IC50 is 1 to 10 µM in assay [1] and more than 10 µM in assay [2]. Also, the EC50 at human CB2 receptors is 0.1 to 1 µM.
For the compound `Cc1cc2cc(C(=O)c3ccccn3)sc2n1CCN1CCOCC1` [Compound 16], the “hCB1 EC50 (cAMP ag, nM)” value on human CB1 receptors is on record as “NS (NS means “Not Significant,” which means less than 30% agonist activity when compared to the positive control.)”. Further, the values for the IC50 in assay [1] and in assay [2] were 1 to 10 µM and more than 10 µM, respectively. Further, the half-maximal effective concentration (EC50) at human CB2 receptors is 0.1 to 1 µM.
Consider `Cc1cc2cc(C(=O)c3cccc(Cl)c3Cl)sc2n1CC(=O)N1CCOCC1` [Compound 22, 2-(2-(2,3-Dichlorobenzoyl)-5-methyl-6H-thieno[2,3-b]pyrrol-6-yl)-1-morpholinoethanone], for which the EC50 at human CB1 receptors (read-out: hCB1 EC50 (cAMP ag)) and at human CB2 receptors was 0.1 to 1 µM in each case. The IC50 in assay [1] was 1 to 10 µM; in assay [2], more than 10 µM.
On to `Cc1cc2cc(C(=O)c3ccncn3)sc2n1CCN1CCOCC1` [Compound 34, (5-Methyl-6-(2-morpholinoethyl)-6H-thieno[2,3-b]pyrrol-2-yl)(pyrimidin-4-yl)methanone], for which the “hCB1 EC50 (cAMP ag, nM)” value on human CB1 receptors was “NS (NS means “Not Significant,” which means less than 30% agonist activity when compared to the positive control.)”. Also, the 50% inhibitory concentration (IC50) in assay [1] (setting [3]) and in assay [2] (setting [4]) was more than 10 µM each time. In addition, the EC50 on human CB2 receptors is 1 to 10 µM.
Turning to `Cc1cc2cc(C(=O)c3ccncc3)sc2n1CCN1CCOCC1` [Compound 40, (5-Methyl-6-(2-morpholinoethyl)-6H-thieno[2,3-b]pyrrol-2-yl)(pyridin-4-yl)methanone], at human CB1 receptors, the “hCB1 EC50 (cAMP ag, nM)” value was “NS (NS means “Not Significant,” which means less than 30% agonist activity when compared to the positive control.)”. Besides, the IC50 was 1 to 10 µM in assay [1] and more than 10 µM in assay [2]. This compound gave a half-maximal effective concentration (EC50) on human CB2 receptors of 0.1 to 1 µM.
Turning to `COc1ccc(C(=O)c2cc3cc(C)n(C(=O)N4CCOCC4)c3s2)cc1` [Compound 66, (2-(4-Methoxybenzoyl)-5-methyl-6H-thieno[2,3-b]pyrrol-6-yl)(morpholino)methanone], the “hCB1 EC50 (cAMP ag, nM)” value at human CB1 receptors is listed as “NS (NS means “Not Significant,” which means less than 30% agonist activity when compared to the positive control.)”. In addition, the IC50 in assay [1] (setting [3]) and in assay [2] (setting [4]) was more than 10 µM in each case.
In the case of `COc1ccc(C(=O)c2cc3cc(C)n(CCC(=O)O)c3s2)cc1` [Compound 73, 3-(2-(4-Methoxybenzoyl)-5-methyl-6H-thieno[2,3-b]pyrrol-6-yl)propanoic acid], at human CB1 receptors, the “hCB1 EC50 (cAMP ag, nM)” value is recorded as “NS (NS means “Not Significant,” which means less than 30% agonist activity when compared to the positive control.)”. Also, the 50% inhibitory concentration (IC50) in assay [1] (setting [3]) and in assay [2] (setting [4]) was more than 10 µM throughout. Moreover, the “hCB2 EC50 (cAMP ag, nM)” value at human CB2 receptors (inhibition of forskolin-stimulated cAMP, HEK-293 cells) is on record as “NS (NS means “Not Significant,” which means less than 30% agonist activity when compared to the positive control.)”.
As to `CCS(=O)(=O)NCCCn1c(C)cc2cc(C(=O)c3ccc(OC)cc3)sc21` [Compound 74, N-(3-(2-(4-Methoxybenzoyl)-5-methyl-6H-thieno[2,3-b]pyrrol-6-yl)propyl)ethanesulfonamide], the “hCB1 EC50 (cAMP ag, nM)” value at human CB1 receptors was “NS (NS means “Not Significant,” which means less than 30% agonist activity when compared to the positive control.)”. For the same compound, the IC50 is 1 to 10 µM in assay [1] and more than 10 µM in assay [2]. At human CB2 receptors, the EC50 is 0.1 to 1 µM.
On to `COc1ccc(C(=O)c2cc3cc(C)n(CCN4CCOCC4=O)c3s2)cn1` [Compound 148, 4-(2-(2-(6-methoxynicotinoyl)-5-methyl-6H-thieno[2,3-b]pyrrol-6-yl)ethyl)morpholin-3-one], for which the “hCB1 EC50 (cAMP ag, nM)” value on human CB1 receptors is reported as “NS (NS means “Not Significant,” which means less than 30% agonist activity when compared to the positive control.)”. The half-inhibitory concentration (IC50) in assay [1] (setting [3]) and in assay [2] (setting [4]) was more than 10 µM each time.
